Reference: ChEMBL document CHEMBL1143961, “Synthesis and antiplatelet activity of ethyl 4-(1-benzyl-1H-indazol-3-yl)benzoate (YD-3) derivatives” (Bioorg Med Chem, 2008)

Legend:
Platelet [1] = test: Inhibition of collagen-induced human platelet aggregation; assay type: functional, cell-based
Platelet [2] = test: Inhibition of U46619-induced human platelet aggregation; assay type: functional, cell-based
Platelet [3] = test: Inhibition of GYPGKF-induced human platelet aggregation; assay type: functional, cell-based
Platelet [4] = test: Inhibition of SFLLRN-induced human platelet aggregation; assay type: functional, cell-based
Platelet [5] = test: Inhibition of thrombin-induced human platelet aggregation; assay type: functional, cell-based
[6] = molecular target: T1, Proteinase-activated receptor 4 (Homo sapiens) (UniProt Q96RI0); test: Inhibition of PAR4-mediated GYPGKF-induced P-selectin expression in human platelet at 1 uM
T1 sequence (whole entry): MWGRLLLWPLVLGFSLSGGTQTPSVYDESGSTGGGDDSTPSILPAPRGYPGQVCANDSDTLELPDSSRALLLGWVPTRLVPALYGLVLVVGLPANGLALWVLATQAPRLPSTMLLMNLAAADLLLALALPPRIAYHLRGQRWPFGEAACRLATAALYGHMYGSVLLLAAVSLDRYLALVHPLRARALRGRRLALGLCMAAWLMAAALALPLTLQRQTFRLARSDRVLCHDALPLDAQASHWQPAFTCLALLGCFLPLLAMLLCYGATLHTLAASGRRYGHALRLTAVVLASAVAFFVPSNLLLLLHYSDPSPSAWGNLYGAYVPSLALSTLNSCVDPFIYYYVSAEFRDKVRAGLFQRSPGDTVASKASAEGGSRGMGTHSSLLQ

[7] = molecular target: T1, Proteinase-activated receptor 4 (Homo sapiens); test: Inhibition of PAR4-mediated GYPGKF-induced ATP release in human platelet assessed per 3*10^8 platelets at 1 uM
Platelet [8] = test: Inhibition of arachidonic acid-stimulated thromboxane B2 formation in human platelet assessed per 3*10^8 platelets at 5 uM; assay type: functional
[9] = molecular target: T1, Proteinase-activated receptor 4 (Homo sapiens); test: Inhibition of PAR4-mediated GYPGKF-induced ATP release in human platelet assessed per 3*10^8 platelets at 0.2 uM
[10] = molecular target: T1, Proteinase-activated receptor 4 (Homo sapiens); test: Inhibition of PAR4-mediated GYPGKF-induced P-selectin expression in human platelet at 0.05 uM
[11] = molecular target: T1, Proteinase-activated receptor 4 (Homo sapiens); test: Inhibition of PAR4-mediated GYPGKF-induced ATP release in human platelet assessed per 3*10^8 platelets at 0.1 uM
[12] = molecular target: T1, Proteinase-activated receptor 4 (Homo sapiens); test: Inhibition of PAR4-mediated GYPGKF-induced P-selectin expression in human platelet at 0.1 uM
Platelet [13] = test: Inhibition of arachidonic acid-stimulated thromboxane B2 formation in human platelet at 5 uM; assay type: functional
[14] = molecular target: T1, Proteinase-activated receptor 4 (Homo sapiens); test: Inhibition of PAR4-mediated GYPGKF-induced P-selectin expression in human platelet at 5 uM
[15] = molecular target: T1, Proteinase-activated receptor 4 (Homo sapiens); test: Inhibition of PAR4-mediated GYPGKF-induced ATP release in human platelet assessed per 3*10^8 platelets at 5 uM

SMILES | IC50 (Platelet [1]) [µM] | IC50 (Platelet [2]) [µM] | IC50 (Platelet [3]) [µM] | IC50 (Platelet [4]) [µM] | IC50 (Platelet [5]) [µM] | inhibition [6] [%] | Activity [7] [ng] | Activity [9] [ng] | inhibition [10] [%] | Activity [11] [ng] | inhibition [12] [%] | inhibition [14] [%] | Activity [15] [ng] | Activity (Platelet [8]) [ng] | inhibition at 5 µM (Platelet [13]) [%]
CCCCn1nc(-c2ccc(C(=O)OCC)cc2)c2ccccc21 | > 10 | > 10 | 0.67 | > 10 | > 10 |  |  |  |  |  |  |  |  |  | 
CCOC(=O)c1ccc(-c2nn(CC)c3ccccc23)cc1 | > 10 | > 10 | 0.36 | > 10 | > 10 |  |  |  |  |  |  |  |  |  | 
CO/N=C\c1ccc(-c2nn(Cc3ccccc3)c3ccccc23)cc1 | > 10 | > 10 | > 10 | > 10 | > 10 |  |  |  |  |  |  |  |  |  | 
CCOC(=O)c1ccc(-c2nn(C(C)C)c3ccccc23)cc1 | > 10 | > 10 | 0.65 | > 10 | > 10 |  |  |  |  |  |  |  |  |  | 
CCOC(=O)c1ccc(-c2nn(Cc3ccoc3)c3ccccc23)cc1 | > 10 | > 10 | 0.58 | > 10 | > 10 |  |  |  |  |  |  |  |  |  | 
CCOC(=O)c1ccc(-c2nn(Cc3cccnc3)c3ccccc23)cc1 | > 10 | > 10 | 5.55 | > 10 | > 10 |  |  |  |  |  |  |  |  |  | 
CCOC(=O)c1ccc(-c2nn(Cc3ccccn3)c3ccccc23)cc1 | > 10 | > 10 | 0.29 | > 10 | > 10 | 1.2 | 3.7 |  |  |  |  |  |  | 1013.7 | 
CC(C)NC(=O)c1ccc(-c2nn(Cc3ccccc3)c3ccccc23)cc1 | > 10 | > 10 | > 10 | > 10 | > 10 |  |  |  |  |  |  |  |  |  | 
CCCNC(=O)c1ccc(-c2nn(Cc3ccccc3)c3ccccc23)cc1 | 9.56 | > 10 | > 10 | > 10 | > 10 |  |  |  |  |  |  |  |  |  | 
CCOC(=O)/C=C/c1ccc(-c2nn(Cc3ccccc3)c3ccccc23)cc1 | > 10 | > 10 | > 10 | > 10 | > 10 |  |  |  |  |  |  |  |  |  | 
CCOC(=O)c1ccc(-c2nn(Cc3cccc(OC)c3)c3ccccc23)cc1 | > 10 | > 10 | 0.26 | > 10 | > 10 |  |  |  |  |  |  |  |  |  | 
CCOC(=O)c1ccc(-c2nn(Cc3cccc(F)c3)c3ccccc23)cc1 | > 10 | > 10 | 0.27 | > 10 | > 10 |  |  |  |  |  |  |  |  |  | 
CCOC(=O)c1ccc(-c2nn(C)c3ccccc23)cc1 | > 10 | > 10 | 0.27 | > 10 | > 10 |  |  |  |  |  |  |  |  |  | 
CCOC(=O)c1ccc(-c2nn(Cc3ccco3)c3ccccc23)cc1 | > 10 | > 10 | 0.34 | > 10 | > 10 |  |  |  |  |  |  |  |  |  | 
CCOC(=O)c1ccc(-c2nn(Cc3ccc(OC)cc3)c3ccccc23)cc1 | > 10 | > 10 | 0.62 | > 10 | > 10 |  |  |  |  |  |  |  |  |  | 
CCOC(=O)c1ccc(-c2nn(Cc3ccc(F)cc3)c3ccccc23)cc1 | > 10 | > 10 | 0.19 | > 10 | > 10 |  |  |  |  |  |  |  |  |  | 
OCc1ccc(-c2nn(Cc3ccccc3)c3ccccc23)cc1 | > 10 | > 10 | > 10 | > 10 | > 10 |  |  |  |  |  |  |  |  |  | 
CCOC(=O)c1ccc(-c2nn(Cc3ccc(Cl)cc3)c3ccccc23)cc1 | > 10 | > 10 | 0.12 | > 10 | > 10 |  |  |  |  |  |  |  |  |  | 
CCCn1nc(-c2ccc(C(=O)OCC)cc2)c2ccccc21 | > 10 | > 10 | 0.49 | > 10 | > 10 |  |  |  |  |  |  |  |  |  | 
CCOC(=O)c1ccc(-c2nn(Cc3ccccc3OC)c3ccccc23)cc1 | > 10 | > 10 | 0.47 | > 10 | > 10 |  |  |  |  |  |  |  |  |  | 
CCOC(=O)c1ccc(-c2nn(Cc3ccccc3F)c3ccccc23)cc1 | > 10 | > 10 | 0.11 | > 10 | > 10 |  |  |  |  |  |  |  |  |  | 
CCOC(=O)c1ccc(-c2c3ccccc3nn2Cc2ccccc2)cc1 | > 10 | > 10 | > 10 | > 10 | > 10 |  |  |  |  |  |  |  |  |  | 
CCOC(=O)c1ccc(-c2nn(Cc3ccncc3)c3ccccc23)cc1 | > 10 | > 10 | 5.63 | > 10 | > 10 |  |  |  |  |  |  |  |  |  | 

Continued, in another order:

IC50 (Platelet [1]) [µM] | IC50 (Platelet [2]) [µM] | IC50 (Platelet [3]) [µM] | IC50 (Platelet [4]) [µM] | IC50 (Platelet [5]) [µM] | inhibition [6] [%] | Activity [7] [ng] | Activity [9] [ng] | inhibition [10] [%] | Activity [11] [ng] | inhibition [12] [%] | inhibition [14] [%] | Activity [15] [ng] | SMILES | Activity (Platelet [8]) [ng] | inhibition at 5 µM (Platelet [13]) [%]
> 10 | > 10 | > 10 | > 10 | > 10 |  |  |  |  |  |  |  |  | CC(C)OC(=O)c1ccc(-c2nn(Cc3ccccc3)c3ccccc23)cc1 |  | 
> 10 | > 10 | 5.64 | > 10 | > 10 |  |  |  |  |  |  |  |  | CCNC(=O)c1ccc(-c2nn(Cc3ccccc3)c3ccccc23)cc1 |  | 
> 10 | > 10 | > 10 | > 10 | > 10 |  |  |  |  |  |  |  |  | CCOC(=O)c1cccc(-c2nn(Cc3ccccc3)c3ccccc23)c1 |  | 
> 10 | > 10 | > 10 | > 10 | > 10 |  |  |  |  |  |  |  |  | CCCOC(=O)c1ccc(-c2nn(Cc3ccccc3)c3ccccc23)cc1 |  | 
> 10 | > 10 | 0.13 | > 10 | > 10 |  |  | 12.7 | 67.2 | 74.4 | 7.7 |  |  | CCOC(=O)c1ccc(-c2nn(Cc3ccccc3)c3ccccc23)cc1 | 1408.3 | 
4.81 | > 10 | 2.64 | > 10 | > 10 |  |  |  |  |  |  | 1.6 | 1.8 | CCOC(=O)c1ccc(-c2nn(-c3ccccc3)c3ccccc23)cc1 | 24.4 | 98.5
> 10 | > 10 | > 10 | > 10 | > 10 |  |  |  |  |  |  |  |  | CNC(=O)c1ccc(-c2nn(Cc3ccccc3)c3ccccc23)cc1 |  | 
> 10 | > 10 | > 10 | > 10 | > 10 |  |  |  |  |  |  |  |  | O=C(O)c1ccc(-c2nn(Cc3ccccc3)c3ccccc23)cc1 |  | 
> 10 | > 10 | > 10 | > 10 | > 10 |  |  |  |  |  |  |  |  | NC(=O)c1ccc(-c2nn(Cc3ccccc3)c3ccccc23)cc1 |  | 
> 10 | > 10 | 0.08 | > 10 | > 10 |  |  | 8.9 | 39.3 | 58.9 | 5.2 |  |  | CCOC(=O)c1ccc(-c2nn(Cc3cccc(Cl)c3)c3ccccc23)cc1 | 1368.4 | 
> 10 | > 10 | 0.56 | > 10 | > 10 |  |  |  |  |  |  |  |  | COC(=O)c1ccc(-c2nn(Cc3ccccc3)c3ccccc23)cc1 |  | 
> 10 | > 10 | 0.23 | > 10 | > 10 |  |  |  |  |  |  |  |  | CCOC(=O)c1ccc(-c2nn(Cc3ccccc3Cl)c3ccccc23)cc1 |  | 
